This is an account of results in the OPERA property sets (Mansouri et al. 2018).

For orientation: logP means the decadic logarithm of the partition coefficient of the neutral form, usually between octanol and water. Higher therefore signals higher lipophilicity.

Non-standard residues stand in square brackets, D forms with d. Residues, ends and D or L forms follow the SMILES beside them.

For the compound `CC(C)(C)NCC(O)COc1cccc2c1C[C@H](O)[C@H](O)C2` (stereo partly specified), the logP was 0.81. The compound `Nc1ccc(C(=O)O)cc1F` yielded a logP of 1.41. With `CC(C)(C)C(COc1ccc([N+](=O)[O-])cc1)OC(=O)n1ccnc1` (stereo unspecified) the figure was 3.35; with `COC(=O)c1ccccc1O`, 2.55; with `CC(=O)OCC1=C(C(=O)OCOC(=O)C(C)(C)C)N2C(=O)C(NC(=O)CSc3ccncc3)C2SC1` (stereo unspecified), 1.63. The same measure for `O=c1[nH]c2cc(Cl)ccc2n1C1CCN(CCCC(c2ccc(F)cc2)c2ccc(F)cc2)CC1`: 7.1; for `NC(=O)Cc1ccc(C(=O)O)cc1`: 0.3; for `CN(C)C(=O)NCCCn1nc(-c2ccccc2)ccc1=O`: 1.61. The compound `O=P(OCC(Br)CBr)(OCC(Br)CBr)OCC(Br)CBr` (stereo unspecified) gave a logP of 4.29. The same measure for `CN(C)C(=O)NCCCCn1nc(-c2ccccc2)ccc1=O`: 1.58. Turning to `CCOC(=O)OCn1cc(F)c(=O)[nH]c1=O`, the logP was -0.04. For the compound `CC1=C(C)C(=O)C(Cc2cccnc2)=C(C)C1=O`, the logP was 2.55. For the compound `OC[C@H]1NC[C@H](O)[C@@H](O)[C@@H]1O`, the logP was -1.8.

Compound `O=C(O)c1cc(I)ccc1O` displayed a logP of 3.34.

For the compound `CC(C)(C)C(=O)OCC1OC(n2cc(I)c(=O)[nH]c2=O)CC1O` (stereo unspecified), the logP was 1.34. As to `CCC(CC)(C(=O)NC(N)=O)C(=O)OC(C)C`, the logP was determined as 1.99. `CC(=O)Nc1ccn(C2OC(CO)C(O)C2O)c(=O)n1` (stereo unspecified) displayed a logP of -1.35. The compound `CCCCC1C(=O)NC(=O)N(C)C1=O` (stereo unspecified) came in with a logP of 1.1. With `Nc1ccc(C(=O)O)cc1I`, the logP stood at 2.36. Turning to `CCC12CCN(CC3(O)CC3)C(Cc3ccc(O)cc31)C2(C)C` (stereo unspecified), the logP is 3.82. The same measure for `Cc1cc2n(c1C(=O)c1ccccc1)CCC2C(=O)O` (stereo unspecified): 2.85; for `Nc1c(Cl)cccc1Cl`: 2.76; for `CCCCCO`: 1.51. The same measure for `CCOC(=O)n1c(NC(=O)OC)nc2cc(C(=O)c3ccccc3)ccc21`: 2.93. With `Fc1ccccc1C1=NCC(=S)N(CC(F)(F)F)c2ccc(Cl)cc21`, the logP turned out to be 4.03. The compound `CCOP(=O)(OCC)SCS(=O)(=O)C(C)(C)C` returned a logP of 2.76.

In turn, `Cc1nn(-c2ccccc2)c(Nc2ccc([N+](=O)[O-])cc2)c1[N+](=O)[O-]` registered a logP of 2.78.

The compound `CNC(=O)NCCCn1nc(-c2ccccc2)ccc1=O` registered a logP of 1.16.

In turn, `Cc1ccc(Cl)c(NS(=O)(=O)c2nc(C)n(-c3ccccc3)n2)c1Cl` returned a logP of 4.4.

Take `Cc1c(C(C)C)c(=O)n(-c2ccccc2)n1C`: the logP is 1.94. As for `O=c1[nH]c(=S)ccn1[C@H]1CC[C@@H](CO)O1`, the logP was -0.21. `CC1c2nc3ccccc3c(=O)n2CN1C` (stereo unspecified) displayed a logP of 0.85. `CC(=O)OCC1=C(C(=O)O)N2C(=O)C(NC(=O)Cc3cc4ccccc4s3)C2SC1` (stereo unspecified) showed a logP of 1.68. Regarding `O=c1[nH]c(=O)n(-c2ccc(Cl)cc2Cl)cc1F`, the lipophilicity (logP) worked out at 1.96. The compound `CCOP(=O)(O)Cc1ccc(S(C)(=O)=O)cc1` came in with a logP of -0.4. With `CN(C)C(=O)OCc1cccc([N+](=O)[O-])c1` the figure was 1.98. Consider `O=C1CN=C(c2ccccc2)c2cc(Cl)ccc2N1CC(F)(F)F`, for which the logP stood at 3.97. The same measure for `CC(C)(C)C(COc1ccc(I)cc1)OC(=O)n1ccnc1` (stereo unspecified): 4.3; for `OC(Cn1ccnc1)(c1ccc(F)cc1)c1ccc(Br)cc1` (stereo unspecified): 3.42; for `CC(O)Cn1cnc2c1c(=O)n(C)c(=O)n2C` (stereo unspecified): -0.77. `Cc1ccc2nc3c(c(=O)n2c1)CCC3`: the logP was found to be 1.63. Consider `Cc1cc(O)c(N)nn1`, for which the logP is -0.85. `CCNc1nc(C)c(C(=O)CCN(CC)CC)s1` had a logP of 2.72. Compound `CC(=O)N[C@H](Cc1ccccc1)C(=O)N[C@H](Cc1ccccc1)C(N)=O` (Ac-[dF]-[dF]-NH2) showed a logP of 1.19.

`Cc1ccc(Cn2cc(F)c(=O)[nH]c2=O)cc1` registered a logP of 1.5.

`COP(=S)(OC)Oc1cc(Cl)c(Cl)cc1Cl` came in with a logP of 4.88.

As for `Nc1ccc(Cl)c(Cl)c1Cl`, the logP turned out to be 3.33. The same measure for `O=C1c2ccccc2C(=O)C1c1cccc(Cl)c1`: 3.61; for `OC(Cn1ccnc1)(c1cccc(Br)c1)c1ccc(F)cc1F` (stereo unspecified): 3.6.

Compound `O=C1CN=C(c2ccccc2F)c2cc(Cl)ccc2N1CC(F)(F)F` showed a logP of 3.36.

Consider `CCCCCCCC=CCCCCCCC(=O)O`, for which the logP was determined as 6.58. With `CN1C(CSCC(F)(F)F)Nc2cc(Cl)c(S(N)(=O)=O)cc2S1(=O)=O` (stereo unspecified) the figure was 1.9; with `N#Cc1ccccc1OCC(O)CNCCNC(=O)Cc1ccc(O)cc1` (stereo unspecified), 0.92; with `CC1CC2CC=CCC2(N)c2ccccc21` (stereo unspecified), 3.4.

Consider `CCCOC(=O)c1ccoc1`, for which the logP was determined as 2.36. The same measure for `CCC(=O)O[C@]1(C(=O)CCl)[C@@H](C)C[C@H]2[C@@H]3CCC4=CC(=O)C=C[C@]4(C)[C@@]3(F)[C@@H](O)C[C@@]21C`: 3.5; for `C[C@]12CCC(=O)C=C1CC[C@@H]1[C@@H]2CC[C@@]2(C)[C@H]1CC[C@]2(O)C(=O)CO`: 3.08. For the compound `CC(=O)NN1CC=CCC1`, the logP turned out to be 0.52. For the compound `CC(C)(C)C(COc1ccc(-c2ccccc2)cc1)OC(=O)n1ccnc1` (stereo unspecified), the logP was 4.56. Take `CC1NC(=O)NC1=O` (stereo unspecified): the logP is -0.91. In turn, `Cc1c(O)ccc(O)c1C` showed a logP of 1.36. `CCCC(=NOCC)C1C(=O)CC2(CCSCC2)OC1=O` (stereo unspecified) gave a logP of 2.9. `CCC(CC)(C(=O)NC(N)=O)C(=O)OCC(=O)OC`: the logP came to 0.99.

For the compound `Cc1ccc(C)c(Oc2cccc(C(=O)NC(C)(C)C)c2)c1`, the logP stood at 4.78. With `C[C@H](CN1CCOCC1)C(C(=O)N1CCCC1)(c1ccccc1)c1ccccc1` the figure was 3.61; with `CC(=O)c1ccc2c(c1)N(CCCN1CCN(CCO)CC1)c1ccccc1S2`, 2.62. Turning to `NS(=O)(=O)c1ccc2c(c1)S(=O)(=O)NC(C(Cl)Cl)N2` (stereo unspecified), the logP came to 0.51. Consider `CC1c2nc3ccccc3c(=O)n2CN1c1ccccc1` (stereo unspecified), for which the logP was found to be 1.79. `CCc1c(O)c(=O)ccn1CC`: the logP turned out to be 0.25. For `CC(C)(C)C(COc1ccc(F)cc1)OC(=O)n1ccnc1` (stereo unspecified), the logP is 3.68. Take `Nc1cc(Cl)c(Cl)c(Cl)c1Cl`: the logP stood at 4.27.

Turning to `O=C(O)COc1ccc(Oc2ccc(Cl)cc2Cl)cc1`, the logP came out at 4.51. With `Cc1cc(O)ccc1O` the figure was 0.91. Compound `Cc1ccc(C=O)o1` gave a logP of 0.67. Take `Cc1ccc(Cc2cnc(NCCCCc3ncc(Br)cc3C)[nH]c2=O)cn1`: the logP was found to be 3.57. `Cc1c(O)c(=O)ccn1C(C)C` returned a logP of 0.05. As to `CCn1cc(C(=O)O)c(=O)c2cc3c(cc21)OCO3`, the logP came to 0.94. With `NS(=O)(=O)c1ccc(Cl)c([N+](=O)[O-])c1` the figure was 0.66; with `CCCNC(=O)CCn1ccc(=O)c(O)c1C`, -0.4; with `CC(=O)C1CCC2C3CC(C)C4=CC(=O)CCC4(C)C3C(=O)CC12C` (stereo unspecified), 2.75. As for `CC(C)COC(=O)N(C)C`, the logP was 2. Compound `NS(=O)(=O)c1cc2c(cc1Br)NC=NS2(=O)=O` gave a logP of 0. With `O=C(O)COc1ccccc1[N+](=O)[O-]` the figure was 1.13; with `COCC(C)n1ccc(=O)c(O)c1C` (stereo unspecified), -0.26; with `CC(=O)N1CCCC1=O`, -0.05. For the compound `COC(=O)c1cc(=O)[nH]c(=O)[nH]1`, the logP amounted to 0.63.

In the case of `COC(=O)NC1=NCC(c2ccc(C=O)cc2)N1C` (stereo unspecified), the logP came to 0.74. Compound `CN1C(=O)NC(c2ccccc2)(c2ccccc2)C1=O` registered a logP of 2.28. Regarding `COC(=O)C1=C(C)NC(C)=C(C(=O)OC(C)C)C1c1cccc2nonc12` (stereo unspecified), the lipophilicity (logP) was 4.28. `O=C1C[N+]([O-])=C(c2ccccc2)c2cc(Cl)ccc2N1CCO` displayed a logP of 0.82. The compound `Oc1ccc(C(O)(Cn2ccnc2)c2ccc(-c3ccncc3)cc2)cc1` (stereo unspecified) yielded a logP of 2.49. In turn, `CC(=O)NCc1ccc(OCC(O)CNC(C)C)cc1` (stereo unspecified) had a logP of 0.32. With `CCc1c(O)c(=O)ccn1CCO` the figure was -0.66.

As to `NC(=S)c1ccc([N+](=O)[O-])cc1`, the logP was 1.75. The same measure for `CC(C)(C)C(COc1ccc(F)cc1)OC(=S)n1ccnc1` (stereo unspecified): 4.37; for `Cc1cccc2nc3n(c(=O)c12)CCC3`: 1.59; for `N=C(N)NN=Cc1ccc(Cl)c([N+](=O)[O-])c1`: 0.53. For `COC(=O)NC1=NCC(c2ccccc2F)N1C` (stereo unspecified), the logP turned out to be 1.53. Compound `COC(=O)NC1=NCC(c2ccccc2Cl)N1C` (stereo unspecified) had a logP of 2.08. Turning to `COc1cccc(C(=O)NC2CCN(Cc3ccc(F)cc3)CC2)c1OC`, the logP is 2.87. With `Nc1cccc(S(=O)(=O)[O-])c1.[Na+]` the figure was -3.4; with `COc1cc(NS(=O)(=O)c2ccc(N)cc2)ncn1`, 0.7; with `CCN(CC)CCCN1c2ccccc2Sc2ccc(Cl)cc21`, 6.46.

`CC(C)(C)C(COc1ccccc1)OC(=S)n1ccnc1` (stereo unspecified) had a logP of 4.27. `Cn1c([N+](=O)[O-])cnc1C1CC1` yielded a logP of 1.

For the compound `CCCCCCCCCCCCOC(=O)N(C)SN(C)C(=O)Oc1ccc2c(c1)OCO2`, the logP is 7.39. For the compound `CCC(C)(C)c1ccc(CC(=O)O)cc1`, the logP is 3.48. Take `O=C1N[C@@H](Cc2ccccc2)C(=O)N[C@H]1Cc1ccccc1`: the logP came to 1.59. In the case of `Cn1nnnc1SCC1=C(C(=O)O)N2C(=O)[C@@H](NC(=O)[C@H](O)c3ccccc3)[C@H]2SC1`, the logP worked out at 0.5. Turning to `CCc1nc2cccc(C)n2c(=O)c1C`, the logP was 1.87. Turning to `CNC(=O)NC(=O)C(C)(C(=O)OC)C1C=CCCC1` (stereo unspecified), the logP came to 1.75. This logP and that of the compound before are within 0.2 log units of each other.

`Cc1cc2c(cc1S(N)(=O)=O)S(=O)(=O)NC=N2`: the logP is -0.32. Turning to `O=C(O)Cc1ccc(C2CCCCC2)cc1`, the logP is 3.91. `C=C1C(=O)OC2C1C(O)CC(C)C1CCC(=O)C12C` (stereo unspecified): the logP amounted to 0.23. For `C[N+](C)(C)CC1CSCO1.[I-]` (stereo unspecified), the logP was -2.7. `CCc1ccc(OCC(OC(=O)n2ccnc2)C(C)(C)C)cc1` (stereo unspecified) came in with a logP of 4.1.
